Results taken from patent publication US20100324130A1, “DAA PERIPHERAL BENZODIAZEPINE RECEPTOR LIGAND FOR CANCER IMAGING AND TREATMENT” (priority 2006, published 2010).

Assays:
[1] = target: T1, PBR protein harvested from MA-10 cells (Mus musculus, UniProt P50637); experiment: Competitive binding study against [3H]PK11195 on PBR protein; settings: amino group capped by acetyl group; [3H]PK11195 radioligand; 4° C., 90 minutes
T1 construct: PBR protein was harvested from MA-10 cells and stocked in PBS at 10 mg/mL; endogenous in cells; host or cells: MA-10 cells
Method: More specifically, conjugable form of DAA1106, with 3-9 carbon spacers, has been synthesized, characterized, and used in a competitive binding assay. The amino group was capped by acetyl group to reduce non-specific binding (Scheme 2).
PBR protein was harvested from MA-10 cells and stocked in PBS at 10 mg/mL. The stock solution was diluted to 30 μg/100 μL for the binding study. [^3H]PK11195 was used as radioligand and the specific activity of the stock solution was 73.6 Ci/mmole (˜11.8 μM). A diluted solution of 15 nM in PBS was prepared before use. For each of the molecules tested (NIRDAA, LissDAA and C3-9DAA1106 amide), eight concentrations of solutions from 3×10^−4M to 3×10^−11M in PBS buffer were prepared. 30 test tubes were used for the study of each molecule. 3 of them were used for total binding (100 μL 15 nM [^3H]PK11195+100 μL PBS buffer+100 μL 30 μg/100 μL PBR protein), 3 test tubes were for non-specific binding (100 μL 15 nM [^3H]PK11195+100 μL 15 μM PK11195+100 μL 30 μg/100 μL PBR protein) and the other 24 were triplicates for each doses of competitor ligand (100 μL, 15 nM [^3H]PK11195+100 μL competitor solution+100 μL 30 μg/100 μL PBR protein). All test tubes were vortexed and then incubated at 4° C. for 90 minutes. Reactions were stopped by filtration on FG/B filters using the Brandel binding apparatus through Whatman GF/B filters (Brandel, Gaithersburg, Md.). The filters (24 positions each) were preincubated in PBS/H2O containing 0.05% PEI for 20-30 minutes before filtration. The filters were then washed 5 times with PBS, put in scintillation vials, vortexed in scintillation fluid and counted. The […] and Ki (equilibrium dissociation constant) values were calculated using the PRISM program package

PBR [2] = settings: cited from earlier work; for IC50: comparison values for parent ligand
PBR [3] = settings: cited from earlier work
[4] = tested on: MDA-MB-231 human breast tumor (high PBR expressing) cells; experiment: Apoptosis study, CellTiter-Glo luminescent cell viability assay; assay type: cell-based; settings: MDA-MB-231, three days
Method: (§1) Apoptosis Study Using Etoposide and EtoposideDAA 50,000 MDA-MB-231 human breast tumor (high PBR expressing) or human Jurkat T lymphocyte cells (low PBR expressing) cells/well were added to 96 well plates and incubated under standard tissue culture conditions (37° C., 5% CO2) for 24 hours. […] After three days, CellTiter-Glo luminescent cell viability assay (Promega) was added. The plates were incubated for an additional one hour and the […] was counted under Xenogen IVIS imaging system. Three wells were used for control which had cells treated with viability assay without drug. Blank […] not have cells or drug, but had viability assay. Medium samples had cells only, without drug or viability assay.

[5] = tested on: human Jurkat T lymphocyte cells (low PBR expressing); experiment: as above; assay type: cell-based
Method: as §1

| Compound | IC50 [1] [µM] | Ki [1] [µM] | other results |
| --- | --- | --- | --- |
| COc1ccc(NCCCNC(C)=O)c(CN(C(C)=O)c2cc(F)ccc2Oc2ccccc2)c1 [C3DAA1106] | 0.39 | 0.068 ± 0.023 |  |
| COc1ccc(NCCCCNC(C)=O)c(CN(C(C)=O)c2cc(F)ccc2Oc2ccccc2)c1 [C4DAA1106] | 0.8 | 0.141 ± 0.036 |  |
| COc1ccc(NCCCCCNC(C)=O)c(CN(C(C)=O)c2cc(F)ccc2Oc2ccccc2)c1 [C5DAA1106] | 0.84 | 0.149 ± 0.049 |  |
| COc1ccc(NCCCCCCNC(C)=O)c(CN(C(C)=O)c2cc(F)ccc2Oc2ccccc2)c1 [C6DAA1106] | 0.35 ± 0.22 | 0.052 ± 0.03 |  |
| COc1ccc(NCCCCCCCNC(C)=O)c(CN(C(C)=O)c2cc(F)ccc2Oc2ccccc2)c1 [C7DAA1106] | 0.4 | 0.071 ± 0.033 |  |
| COc1ccc(NCCCCCCCCNC(C)=O)c(CN(C(C)=O)c2cc(F)ccc2Oc2ccccc2)c1 [C8DAA1106] | 0.24 | 0.043 ± 0.019 |  |
| COc1ccc(NCCCCCCCCCNC(C)=O)c(CN(C(C)=O)c2cc(F)ccc2Oc2ccccc2)c1 [C9DAA1106] | 0.29 | 0.051 ± 0.017 |  |
| COc1ccc(OC)c(CN(C(C)=O)c2cc(F)ccc2Oc2ccccc2)c1 [DAA1106] |  |  | IC50 (PBR [2]): 0.00028 µM; binding affinity for PBR (PBR [2]; fentomolar): 10^−15 M; concentration to displace PBR complexed PK11195 and Ro5-4864 (PBR [3]): 10^−15-10^−12 M |
| COc1ccc(OC)c(CN(C(C)=O)c2cc(F)ccc2Oc2ccccc2)c1 [[^11C]DAA1106] |  |  | IC50 (PBR [2]): 0.00091 µM |
| COc1cc([C@@H]2c3cc4c(cc3[C@@H](O[C@@H]3O[C@@H]5CO[C@@H](C)O[C@H]5[C@H](O)[C@H]3O)[C@H]3COC(=O)[C@H]23)OCO4)cc(OC)c1O [etoposide, reference compound] |  |  | concentration at which cells were beginning to respond [4]: 10^−4 M; concentration at which cells began to respond ([5]; Jurkat, three days): 10^−6 M; concentration at which cells effectively respond ([5]; Jurkat, three days): 10^−5 M |
| COc1ccc(NCCCCCCNC(=O)CCOc2c(OC)cc([C@@H]3c4cc5c(cc4[C@@H](OC4OC6COC(C)OC6C(O)C4O)[C@H]4COC(=O)[C@H]34)OCO5)cc2OC)c(CN(C(C)=O)c2cc(F)ccc2Oc2ccccc2)c1 (stereo partly drawn) [etoposide-C6DAA1106] |  |  | concentration at which cells were beginning to respond [4]: 10^−4 M; toxicity to normal cells compared with etoposide ([5]; Jurkat (low PBR expressing)): less toxicity to normal cells than etoposide; concentration at which cells effectively respond ([5]; Jurkat, three days): 10^−4 M |
